Test systems include UACC-62 melanoma; T-47D breast; PC-3 prostate; UO-31 renal; HOP-62 NSCLC; SN12C renal; HOP-92 NSCLC; HCT-116 colon; A498 renal; HT29 colon.
Assay in all cases: NCI tumour cell line growth inhibition, 48 h

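96-well plates; 48 h exposure; 5 concentrations. Endpoints by linear interpolation between flanking doses. Not reached: highest tested concentration assigned. GI50 = concentration required for 50% inhibition of growth. At the TGI there is no net growth.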 Some results are limits rather than exact numbers.

In the case of `O=C(O)c1ccc2c3c(ncnc13)-c1ccccc1C2=O`, the GI50 is 2440 nM in the assay on UACC-62 melanoma; greater than 100000 nM with T-47D breast; 43300 nM in the assay with PC-3 prostate; 15.8 µM in the assay on UO-31 renal; 1760 nM with HOP-62 NSCLC; 4.26 µM in the assay with SN12C renal. In addition, the GI50 in the assay on HOP-92 NSCLC is greater than 100 µM; in the assay with HCT-116 colon, 27200 nM; in the assay with A498 renal, 1960 nM; with HT29 colon, 3450 nM. The TGI is 6.11 µM with UACC-62 melanoma; greater than 100 µM with T-47D breast; greater than 100 µM with PC-3 prostate; greater than 100 µM with UO-31 renal; 3.75 µM in the assay with HOP-62 NSCLC; greater than 87.2 µM with SN12C renal. For the same molecule, the TGI with HOP-92 NSCLC was greater than 100 µM; in the assay on HCT-116 colon it was greater than 100 µM; with A498 renal, 10.9 µM; in the assay with HT29 colon, greater than 28 µM.
In the case of `CCOc1ccc2nc(-c3cccc(OCC(=O)NC(C)C)c3)nc(Nc3ccc(-c4cn[nH]c4)cc3)c2c1`, the GI50 in the assay with UACC-62 melanoma was 1210 nM; in the assay on T-47D breast, 292 nM; in the assay with PC-3 prostate it was 348 nM; with UO-31 renal, 0.344 µM; in the assay on HOP-62 NSCLC it was 399 nM; with SN12C renal it was 1.06 µM. The GI50 in the assay with HOP-92 NSCLC is 0.452 µM; in the assay on HCT-116 colon it was 783 nM; in the assay on A498 renal, 2540 nM; in the assay on HT29 colon it was 751 nM. For the same molecule, the TGI is 4.16 µM in the assay on UACC-62 melanoma; 3.57 µM in the assay on T-47D breast; 2 µM in the assay on PC-3 prostate; 3.51 µM with UO-31 renal; 2.22 µM in the assay with HOP-62 NSCLC; 3.76 µM in the assay with SN12C renal. Moreover, the TGI in the assay with HOP-92 NSCLC came out at 3.29 µM; in the assay with HCT-116 colon, 3.18 µM; in the assay on A498 renal, 9.85 µM; with HT29 colon, 5.09 µM.
`c1cncc(-c2nc3ccccc3s2)c1`: the GI50 in the assay on UACC-62 melanoma is greater than 100000 nM; in the assay with T-47D breast it was greater than 100000 nM; in the assay with PC-3 prostate it was greater than 100000 nM; in the assay with UO-31 renal, 29.5 µM; in the assay on HOP-62 NSCLC, greater than 100000 nM; in the assay with SN12C renal, greater than 100 µM. The GI50 in the assay on HOP-92 NSCLC was 18 µM; in the assay on HCT-116 colon it was greater than 100000 nM; in the assay with A498 renal, 50700 nM; in the assay with HT29 colon it was greater than 100000 nM. Besides, the TGI in the assay with UACC-62 melanoma, in the assay on T-47D breast, in the assay with PC-3 prostate, in the assay with UO-31 renal, with HOP-62 NSCLC and in the assay with SN12C renal was greater than 100 µM each time. For the same molecule, the TGI in the assay with HOP-92 NSCLC, with HCT-116 colon, in the assay on A498 renal and in the assay on HT29 colon was greater than 100 µM in each case.
As to `COc1ccc2nc3cc([N+](=O)[O-])ccc3c(NCCCN(CCO)CCO)c2c1`, the GI50 was 3340 nM in the assay with UACC-62 melanoma; 1620 nM with T-47D breast; 8.56 µM with UO-31 renal; 11400 nM in the assay on HOP-62 NSCLC; 3.92 µM in the assay with SN12C renal; 4.31 µM with HOP-92 NSCLC. Also, the GI50 was 2360 nM in the assay on HCT-116 colon, 18000 nM in the assay with A498 renal and 2030 nM in the assay with HT29 colon. For the same molecule, the TGI in the assay on UACC-62 melanoma was 11.6 µM; in the assay on T-47D breast, 7.5 µM; with PC-3 prostate, 20.1 µM; in the assay on UO-31 renal, 22.6 µM; in the assay on HOP-62 NSCLC, 24.1 µM; in the assay with SN12C renal, 14.7 µM. In addition, the TGI in the assay on HOP-92 NSCLC was 11.2 µM; with HCT-116 colon, 9.54 µM; in the assay on A498 renal, 38.6 µM; in the assay with HT29 colon, 5.21 µM.
Take `Cn1c(/C=C(\C#N)c2cccc(C(F)(F)F)c2)nc2c(N3CCOCC3)nc(Cl)nc21`: the GI50 is 973 nM in the assay with UACC-62 melanoma; 846 nM in the assay on T-47D breast; 726 nM in the assay on PC-3 prostate; 0.422 µM in the assay on UO-31 renal; 1450 nM in the assay on HOP-62 NSCLC; 0.829 µM in the assay on SN12C renal. In addition, the GI50 with HOP-92 NSCLC is 0.342 µM; with HCT-116 colon, 178 nM; in the assay with A498 renal it was 1380 nM; with HT29 colon, 369 nM. Besides, the TGI amounted to 2.28 µM in the assay with UACC-62 melanoma; 3.25 µM in the assay on T-47D breast; 2.5 µM in the assay on PC-3 prostate; 1.84 µM in the assay with UO-31 renal; 3.2 µM with HOP-62 NSCLC; 2.14 µM in the assay on SN12C renal. Moreover, the TGI with HOP-92 NSCLC was found to be 1.89 µM; with HCT-116 colon, 0.398 µM; in the assay on A498 renal it was 2.72 µM; in the assay on HT29 colon, 1.38 µM.

The record behind these values is PubChem BioAssay (NCI).
